Measured values as given in the supplement of paper PMC10307832.

Legend:
Experiment in all cases: relative viability (nuclei count vs DMSO), 5 days (fraction); higher = more cells survive
[1] = system: NCI-H322M
Summary of the method: (§1)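 Relative viability equals treated-well nuclei counts divided by vehicle-well nuclei counts. Counts came from 4× images of lung cancer cell lines grown in 1536-well plates for 5 days after pin-tool dosing on the day after seeding. Dosing used one drug alone or a fixed anchor-drug dose plus five library-drug doses (not always all listed) in √10 steps, and values are medians of duplicate plates.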

[2] = system: NCI-H460
Summary of the method: as §1

[3] = system: NCI-H1792
Summary of the method: as §1

[4] = system: NCI-H522
Summary of the method: as §1

[5] = system: NCI-H1651
Summary of the method: as §1

[6] = system: NCI-H650
Summary of the method: as §1

[7] = system: NCI-H2347
Summary of the method: as §1

[8] = system: NCI-H1355
Summary of the method: as §1

[9] = system: LXF-289
Summary of the method: as §1

[10] = system: NCI-H441
Summary of the method: as §1

[11] = system: NCI-H2170
Summary of the method: as §1

[12] = system: PC-14
Summary of the method: as §1

[13] = system: NCI-H520
Summary of the method: as §1

[14] = system: RERF-LC-KJ
Summary of the method: as §1

[15] = system: NCI-H1915
Summary of the method: as §1

[16] = system: NCI-H596
Summary of the method: as §1

[17] = system: SK-MES-1
Summary of the method: as §1

[18] = system: SW 900
Summary of the method: as §1

[19] = system: LCLC-103H
Summary of the method: as §1

[20] = system: NCI-H661
Summary of the method: as §1

[21] = system: NCI-H1563
Summary of the method: as §1

[22] = system: NCI-H3122
Summary of the method: as §1

[23] = system: NCI-H1755
Summary of the method: as §1

C[C@@H]1CN(CC(=O)Nc2ccc3c(c2)Cc2cccc(-c4cc(=O)cc(N5CCOCC5)o4)c2S3)C[C@H](C)O1 + Nc1nc2[nH]cc(CCc3ccc(C(=O)N[C@@H](CCC(=O)O)C(=O)O)cc3)c2c(=O)[nH]1 [Pemetrexed] (partner 0.2 µM)
relative viability ([1]; first compound 0.04 µM): 0.597
relative viability ([1]; first compound 0.1265 µM): 0.607
relative viability ([1]; first compound 0.4 µM): 0.649
relative viability ([1]; first compound 4 µM): 0.657
relative viability ([2]; first compound 0.04 µM): 0.0638
relative viability ([2]; first compound 0.1265 µM): 0.0634
relative viability ([2]; first compound 0.4 µM): 0.0696
relative viability ([2]; first compound 4 µM): 0.0616
relative viability ([3]; first compound 0.04 µM): 0.72
relative viability ([3]; first compound 0.1265 µM): 0.766
relative viability ([3]; first compound 0.4 µM): 0.719
relative viability ([3]; first compound 4 µM): 0.591
relative viability ([4]; first compound 0.04 µM): 0.691
relative viability ([4]; first compound 0.1265 µM): 0.89
relative viability ([4]; first compound 0.4 µM): 1.11
relative viability ([4]; first compound 4 µM): 1.11
relative viability ([5]; first compound 0.04 µM): 0.549
relative viability ([5]; first compound 0.1265 µM): 0.565
relative viability ([5]; first compound 0.4 µM): 0.569
relative viability ([5]; first compound 4 µM): 0.52
relative viability ([6]; first compound 0.04 µM): 0.925
relative viability ([6]; first compound 0.1265 µM): 0.866
relative viability ([6]; first compound 0.4 µM): 0.943
relative viability ([6]; first compound 4 µM): 0.812
relative viability ([7]; first compound 0.04 µM): 0.413
relative viability ([7]; first compound 0.1265 µM): 0.408
relative viability ([7]; first compound 0.4 µM): 0.413
relative viability ([7]; first compound 4 µM): 0.381
relative viability ([8]; first compound 0.04 µM): 0.941
relative viability ([8]; first compound 0.1265 µM): 1.04
relative viability ([8]; first compound 0.4 µM): 0.959
relative viability ([8]; first compound 4 µM): 0.997
relative viability ([9]; first compound 0.04 µM): 0.884
relative viability ([9]; first compound 0.1265 µM): 0.99
relative viability ([9]; first compound 0.4 µM): 0.89
relative viability ([9]; first compound 4 µM): 0.818
relative viability ([10]; first compound 0.04 µM): 0.281
relative viability ([10]; first compound 0.1265 µM): 0.263
relative viability ([10]; first compound 0.4 µM): 0.247
relative viability ([10]; first compound 4 µM): 0.217
relative viability ([11]; first compound 0.04 µM): 0.266
relative viability ([11]; first compound 0.1265 µM): 0.286
relative viability ([11]; first compound 0.4 µM): 0.259
relative viability ([11]; first compound 4 µM): 0.26
relative viability ([12]; first compound 0.04 µM): 0.119
relative viability ([12]; first compound 0.1265 µM): 0.141
relative viability ([12]; first compound 0.4 µM): 0.127
relative viability ([12]; first compound 4 µM): 0.116
relative viability ([13]; first compound 0.04 µM): 0.844
relative viability ([13]; first compound 0.1265 µM): 0.666
relative viability ([13]; first compound 0.4 µM): 0.534
relative viability ([13]; first compound 4 µM): 0.492
relative viability ([14]; first compound 0.04 µM): 0.521
relative viability ([14]; first compound 0.1265 µM): 0.465
relative viability ([14]; first compound 0.4 µM): 0.461
relative viability ([14]; first compound 4 µM): 0.443
relative viability ([15]; first compound 0.04 µM): 0.478
relative viability ([15]; first compound 0.1265 µM): 0.426
relative viability ([15]; first compound 0.4 µM): 0.413
relative viability ([15]; first compound 4 µM): 0.358
relative viability ([16]; first compound 0.04 µM): 0.548
relative viability ([16]; first compound 0.1265 µM): 0.535
relative viability ([16]; first compound 0.4 µM): 0.429
relative viability ([16]; first compound 4 µM): 0.481
relative viability ([17]; first compound 0.04 µM): 1.01
relative viability ([17]; first compound 0.1265 µM): 0.9
relative viability ([17]; first compound 0.4 µM): 0.808
relative viability ([17]; first compound 4 µM): 0.808
relative viability ([18]; first compound 0.04 µM): 0.469
relative viability ([18]; first compound 0.1265 µM): 0.471
relative viability ([18]; first compound 0.4 µM): 0.44
relative viability ([18]; first compound 4 µM): 0.453
relative viability ([19]; first compound 0.04 µM): 0.495
relative viability ([19]; first compound 0.1265 µM): 0.464
relative viability ([19]; first compound 0.4 µM): 0.458
relative viability ([19]; first compound 4 µM): 0.507
relative viability ([20]; first compound 0.04 µM): 0.969
relative viability ([20]; first compound 0.1265 µM): 0.904
relative viability ([20]; first compound 0.4 µM): 0.899
relative viability ([20]; first compound 4 µM): 0.894
relative viability ([21]; first compound 0.04 µM): 0.661
relative viability ([21]; first compound 0.1265 µM): 0.774
relative viability ([21]; first compound 0.4 µM): 0.715
relative viability ([21]; first compound 4 µM): 0.712
relative viability ([22]; first compound 0.04 µM): 0.192
relative viability ([22]; first compound 0.1265 µM): 0.193
relative viability ([22]; first compound 0.4 µM): 0.192
relative viability ([22]; first compound 4 µM): 0.183
relative viability ([23]; first compound 0.04 µM): 0.401
relative viability ([23]; first compound 0.1265 µM): 0.507
relative viability ([23]; first compound 0.4 µM): 0.453
relative viability ([23]; first compound 4 µM): 0.47

CC(C)Oc1cc(Nc2nc(N[C@@H](C)c3ccc(F)cn3)ncc2Cl)n[nH]1 [AZ23] + Nc1nc2[nH]cc(CCc3ccc(C(=O)N[C@@H](CCC(=O)O)C(=O)O)cc3)c2c(=O)[nH]1 [Pemetrexed] (partner 0.2 µM)
relative viability ([1]; first compound 0.01 µM): 0.536
relative viability ([1]; first compound 0.03162 µM): 0.617
relative viability ([1]; first compound 0.3162 µM): 0.689
relative viability ([2]; first compound 0.01 µM): 0.0522
relative viability ([2]; first compound 0.03162 µM): 0.0661
relative viability ([2]; first compound 0.3162 µM): 0.0611
relative viability ([3]; first compound 0.01 µM): 0.813
relative viability ([3]; first compound 0.03162 µM): 0.912
relative viability ([3]; first compound 0.3162 µM): 1
relative viability ([4]; first compound 0.01 µM): 1
relative viability ([4]; first compound 0.03162 µM): 1
relative viability ([4]; first compound 0.3162 µM): 1.11
relative viability ([5]; first compound 0.01 µM): 0.349
relative viability ([5]; first compound 0.03162 µM): 0.597
relative viability ([5]; first compound 0.3162 µM): 0.615
relative viability ([6]; first compound 0.01 µM): 0.936
relative viability ([6]; first compound 0.03162 µM): 0.969
relative viability ([6]; first compound 0.3162 µM): 0.888
relative viability ([7]; first compound 0.01 µM): 0.379
relative viability ([7]; first compound 0.03162 µM): 0.412
relative viability ([7]; first compound 0.3162 µM): 0.459
relative viability ([8]; first compound 0.01 µM): 1.13
relative viability ([8]; first compound 0.03162 µM): 1.11
relative viability ([8]; first compound 0.3162 µM): 1.05
relative viability ([9]; first compound 0.01 µM): 1.02
relative viability ([9]; first compound 0.03162 µM): 0.974
relative viability ([9]; first compound 0.3162 µM): 0.99
relative viability ([10]; first compound 0.01 µM): 0.262
relative viability ([10]; first compound 0.03162 µM): 0.242
relative viability ([10]; first compound 0.3162 µM): 0.267
relative viability ([11]; first compound 0.01 µM): 0.261
relative viability ([11]; first compound 0.03162 µM): 0.265
relative viability ([11]; first compound 0.3162 µM): 0.256
relative viability ([12]; first compound 0.01 µM): 0.127
relative viability ([12]; first compound 0.03162 µM): 0.136
relative viability ([12]; first compound 0.3162 µM): 0.147
relative viability ([13]; first compound 0.01 µM): 0.678
relative viability ([13]; first compound 0.03162 µM): 0.759
relative viability ([13]; first compound 0.3162 µM): 0.615
relative viability ([14]; first compound 0.01 µM): 0.493
relative viability ([14]; first compound 0.03162 µM): 0.463
relative viability ([14]; first compound 0.3162 µM): 0.495
relative viability ([15]; first compound 0.01 µM): 0.463
relative viability ([15]; first compound 0.03162 µM): 0.485
relative viability ([15]; first compound 0.3162 µM): 0.607
relative viability ([16]; first compound 0.01 µM): 0.422
relative viability ([16]; first compound 0.03162 µM): 0.55
relative viability ([16]; first compound 0.3162 µM): 0.509
relative viability ([17]; first compound 0.03162 µM): 1.03
relative viability ([17]; first compound 0.3162 µM): 1.03
relative viability ([18]; first compound 0.01 µM): 0.491
relative viability ([18]; first compound 0.3162 µM): 0.514
relative viability ([19]; first compound 0.01 µM): 0.448
relative viability ([19]; first compound 0.03162 µM): 0.433
relative viability ([19]; first compound 0.3162 µM): 0.466
relative viability ([20]; first compound 0.01 µM): 0.864
relative viability ([20]; first compound 0.03162 µM): 0.925
relative viability ([20]; first compound 0.3162 µM): 0.927
relative viability ([21]; first compound 0.01 µM): 0.69
relative viability ([21]; first compound 0.03162 µM): 0.934
relative viability ([21]; first compound 0.3162 µM): 0.885
relative viability ([22]; first compound 0.01 µM): 0.151
relative viability ([22]; first compound 0.03162 µM): 0.199
relative viability ([22]; first compound 0.3162 µM): 0.195
relative viability ([23]; first compound 0.01 µM): 0.401
relative viability ([23]; first compound 0.03162 µM): 0.459
relative viability ([23]; first compound 0.3162 µM): 0.468
